These results are taken from patent US8471005B2 (Cephalon, Inc., priority 2008, dated 2013).

Molecules are shown by their SMILES. pIC50: −log10 of the molar value. A value given as a limit tells only on which side of the number the result lay.

In one assay the target is T1, ALK (Homo sapiens, UniProt Q9UM73).
T1 construct: host or cells: baculovirus expression system
Description: ALK Kinase Assay (ELISA/TRF, PLC-γ substrate). To be noted: ALK kinase inhibition, 1 μM ATP; read-out: ALK Potency. Type of assay: biochemical. Put shortly:
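Wells were coated with 10 μg/mL phospholipase C-γ substrate in TBS, and the reaction was started by adding 30 ng/ml ALK enzyme and run at 37° C for 15 minutes. Phosphorylated product was detected with Eu-N1-labeled PT66 antibody, and IC50 values came from sigmoidal variable-slope fits of percent inhibition against log concentration.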
A general note: ELISA stands for enzyme-linked immunosorbent assay.

In another assay the target is T2, JAK2 (Homo sapiens, UniProt O60674).
T2 construct: host or cells: baculovirus expression system
Description: Recombinant Human JAK2 Kinase Assay (TRF). The format is biochemical. The following applies: JAK2 kinase inhibition, 0.2 μM ATP; read-out: JAK2 Potency. Put shortly: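 Kinase activity of baculovirus-expressed JAK2 is followed on a surface-immobilised biotinylated peptide, with the reaction run for 20 min at room temperature in buffer containing 0.2 μM ATP and manganese. Phosphorylation is read with Eu-N1 PY100 antibody.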

T2 sequence (O60674 whole entry): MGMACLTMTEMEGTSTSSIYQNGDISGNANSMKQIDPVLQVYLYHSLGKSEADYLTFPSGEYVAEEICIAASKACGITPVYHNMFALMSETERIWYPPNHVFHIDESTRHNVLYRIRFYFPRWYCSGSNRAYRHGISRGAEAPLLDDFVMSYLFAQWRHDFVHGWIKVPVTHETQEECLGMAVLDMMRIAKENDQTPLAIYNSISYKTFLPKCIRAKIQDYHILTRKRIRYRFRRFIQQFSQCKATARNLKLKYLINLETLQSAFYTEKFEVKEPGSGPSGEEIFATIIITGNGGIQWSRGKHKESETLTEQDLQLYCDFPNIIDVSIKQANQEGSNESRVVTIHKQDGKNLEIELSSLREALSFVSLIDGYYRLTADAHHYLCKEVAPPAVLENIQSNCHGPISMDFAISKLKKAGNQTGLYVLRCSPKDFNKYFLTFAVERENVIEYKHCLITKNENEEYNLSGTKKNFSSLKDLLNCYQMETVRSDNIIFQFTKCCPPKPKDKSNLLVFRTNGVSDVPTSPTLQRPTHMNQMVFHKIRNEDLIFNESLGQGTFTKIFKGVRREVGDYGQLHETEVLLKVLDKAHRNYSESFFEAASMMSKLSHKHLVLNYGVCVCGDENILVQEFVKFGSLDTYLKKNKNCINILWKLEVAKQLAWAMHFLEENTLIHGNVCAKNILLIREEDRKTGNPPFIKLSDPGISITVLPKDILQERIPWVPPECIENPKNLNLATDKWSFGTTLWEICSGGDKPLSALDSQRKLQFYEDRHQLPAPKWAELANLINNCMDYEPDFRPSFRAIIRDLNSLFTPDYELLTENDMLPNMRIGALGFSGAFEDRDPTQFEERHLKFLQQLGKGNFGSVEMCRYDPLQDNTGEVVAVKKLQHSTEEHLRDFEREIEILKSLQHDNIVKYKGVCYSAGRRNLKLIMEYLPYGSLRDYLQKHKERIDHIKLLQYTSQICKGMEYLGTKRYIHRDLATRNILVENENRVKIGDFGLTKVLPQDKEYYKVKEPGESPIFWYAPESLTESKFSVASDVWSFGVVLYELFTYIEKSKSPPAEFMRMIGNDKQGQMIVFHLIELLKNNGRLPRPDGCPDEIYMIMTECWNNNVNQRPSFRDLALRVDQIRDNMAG
T1 sequence (Q9UM73 19-1620): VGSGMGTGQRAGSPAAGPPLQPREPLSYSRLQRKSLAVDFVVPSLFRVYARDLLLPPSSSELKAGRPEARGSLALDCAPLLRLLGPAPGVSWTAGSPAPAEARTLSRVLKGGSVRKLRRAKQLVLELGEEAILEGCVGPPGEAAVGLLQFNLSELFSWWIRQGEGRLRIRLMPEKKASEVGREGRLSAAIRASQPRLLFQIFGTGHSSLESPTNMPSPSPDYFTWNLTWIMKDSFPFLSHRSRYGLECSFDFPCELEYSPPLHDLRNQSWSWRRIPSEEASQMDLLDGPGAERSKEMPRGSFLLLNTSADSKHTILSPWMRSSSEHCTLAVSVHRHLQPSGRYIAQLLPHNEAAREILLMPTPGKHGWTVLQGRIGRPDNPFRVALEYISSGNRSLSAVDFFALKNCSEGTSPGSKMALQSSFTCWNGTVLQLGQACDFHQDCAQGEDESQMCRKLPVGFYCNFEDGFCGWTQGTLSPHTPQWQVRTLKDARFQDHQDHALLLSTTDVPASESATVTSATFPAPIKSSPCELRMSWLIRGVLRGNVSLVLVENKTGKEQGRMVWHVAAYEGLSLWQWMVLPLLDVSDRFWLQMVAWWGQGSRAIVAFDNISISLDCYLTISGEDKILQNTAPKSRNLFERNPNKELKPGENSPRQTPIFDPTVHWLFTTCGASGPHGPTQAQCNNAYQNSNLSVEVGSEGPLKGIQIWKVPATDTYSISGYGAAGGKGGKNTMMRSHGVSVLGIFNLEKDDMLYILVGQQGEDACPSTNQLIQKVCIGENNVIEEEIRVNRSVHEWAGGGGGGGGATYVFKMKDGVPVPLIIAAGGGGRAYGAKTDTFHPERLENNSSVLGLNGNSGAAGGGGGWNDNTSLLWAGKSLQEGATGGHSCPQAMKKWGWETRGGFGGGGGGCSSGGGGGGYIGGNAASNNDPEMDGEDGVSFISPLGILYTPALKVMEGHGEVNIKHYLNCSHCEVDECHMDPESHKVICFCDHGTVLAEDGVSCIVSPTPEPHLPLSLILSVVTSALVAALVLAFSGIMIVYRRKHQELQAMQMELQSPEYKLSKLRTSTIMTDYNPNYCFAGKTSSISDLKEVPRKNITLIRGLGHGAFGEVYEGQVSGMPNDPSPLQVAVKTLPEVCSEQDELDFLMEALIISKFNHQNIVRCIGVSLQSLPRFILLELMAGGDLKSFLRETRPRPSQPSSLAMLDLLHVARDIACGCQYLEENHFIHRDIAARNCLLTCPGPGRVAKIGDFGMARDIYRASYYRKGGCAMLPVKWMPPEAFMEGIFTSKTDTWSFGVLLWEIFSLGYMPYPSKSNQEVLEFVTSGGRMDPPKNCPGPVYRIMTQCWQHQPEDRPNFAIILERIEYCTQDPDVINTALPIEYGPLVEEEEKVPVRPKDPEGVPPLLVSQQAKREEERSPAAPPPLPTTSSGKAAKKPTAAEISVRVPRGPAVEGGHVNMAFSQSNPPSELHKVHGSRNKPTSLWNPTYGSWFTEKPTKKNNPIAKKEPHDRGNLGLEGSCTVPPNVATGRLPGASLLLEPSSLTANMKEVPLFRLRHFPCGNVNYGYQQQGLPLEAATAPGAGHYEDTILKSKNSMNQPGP

Regarding `COc1ccc(-c2ccc3cnc(Nc4ccc5c(c4)CN(CC(N)=O)C5)nn23)cn1` [Example 926, 2-{5-[7-(6-Methoxy-pyridin-3-yl)-pyrrolo[2,1-f][1,2,4]triazin-2-ylamino]-1,3-dihydro-isoindol-2-yl}-acetamide], the figures for the pIC50 at ALK and on JAK2 were 5.00 to 6.00 and > 7.00, respectively.
In the same order, the values of `CC(C)(C)NS(=O)(=O)c1cccc(-c2ccc3cnc(Nc4ccc5c(c4)CN(CC(N)=O)C5)nn23)c1` [Example 927, 2-{5-[7-(3-tert-Butylsulfamoyl-phenyl)-pyrrolo[2,1-f][1,2,4]triazin-2-ylamino]-1,3-dihydro-isoindol-2-yl}-acetamide] are 6.00 to 7.00 and > 7.00.
As for `NC(=O)CN1CCC(c2ccc(Nc3ncc4ccc(-c5cccc(S(=O)(=O)N6CCCC6)c5)n4n3)cc2)CC1` [Example 928, 2-[4-(4-{7-[3-(Pyrrolidine-1-sulfonyl)-phenyl]-pyrrolo[2,1-f][1,2,4]triazin-2-ylamino}-phenyl)-piperidin-1-yl]-acetamide], the pIC50 on ALK was 6.00 to 7.00; at JAK2, > 7.00.
Take `CCNS(=O)(=O)c1cccc(-c2ccc3cnc(Nc4ccc(C5CCN(CC(N)=O)CC5)cc4)nn23)c1` [Example 929, 2-(4-{4-[7-(3-Ethylsulfamoyl-phenyl)-pyrrolo[2,1f][1,2,4]triazin-2-ylamino]-phenyl}-piperidin-1-yl)-acetamide]: the pIC50 on ALK and at JAK2 was > 7.00 throughout.
Turning to `NC(=O)CN1CCC(c2ccc(Nc3ncc4ccc(-c5cccc(S(=O)(=O)NC6CC6)c5)n4n3)cc2)CC1` [Example 930, 2-(4-{4-[7-(3-Cyclopropylsulfamoyl-phenyl)-pyrrolo[2,1-f][1,2,4]triazin-2-ylamino]-phenyl}-piperidin-1-yl)-acetamide], the pIC50 at ALK and on JAK2 was > 7.00 each time.
On to `CN1CCc2ccc(Nc3ncc4ccc(-c5cccc(S(=O)(=O)NC(C)(C)C)c5)n4n3)cc2C1` [Example 931, N-tert-Butyl-3-[2-(2-methyl-1,2,3,4-tetrahydro-isoquinolin-7-ylamino)-pyrrolo[2,1-f][1,2,4]triazin-7-yl]-benzenesulfonamide], for which the pIC50 on ALK is 6.00 to 7.00; at JAK2 it was > 7.00.
For `CN1CCC(c2ccc(Nc3ncc4ccc(-c5cnn(CCC#N)c5)n4n3)cc2)CC1` [Example 932, 3-(4-{2-[4-(1-Methyl-piperidin-4-yl)-phenylamino]-pyrrolo[2,1-f][1,2,4]triazin-7-yl}-pyrazol-1-yl)-propionitrile], in that order: 6.00 to 7.00 and > 7.00.
For `N#CCCn1cc(-c2ccc3cnc(Nc4ccc(C5CCN(CC(N)=O)CC5)cc4)nn23)cn1` [Example 933, 2-[4-(4-{7-[1-(2-Cyano-ethyl)-1H-pyrazol-4-yl]-pyrrolo[2,1-f][1,2,4]triazin-2-ylamino}-phenyl)-piperidin-1-yl]-acetamide], in that order: 6.00 to 7.00 and > 7.00.
In the case of `COc1ccc(-c2ccc3cnc(Nc4ccc(C5CCN(CC(N)=O)CC5)c(C)c4)nn23)cn1` [Example 934, 2-(4-{4-[7-(6-Methoxy-pyridin-3-yl)-pyrrolo[2,1-f][1,2,4]triazin-2-ylamino]-2-methyl-phenyl}-piperidin-1-yl)-acetamide], the pIC50 on ALK and at JAK2 was > 7.00 each time.
Take `COc1ccccc1-c1ccc2cnc(Nc3ccc(C4CCN(CC(N)=O)CC4)c(C)c3)nn12` [Example 935, 2-(4-{4-[7-(2-Methoxy-phenyl)-pyrrolo[2,1-f][1,2,4]triazin-2-ylamino]-2-methyl-phenyl}-piperidin-1-yl)-acetamide]: the pIC50 on ALK and on JAK2 was > 7.00 each time.
Take `CN1Cc2ccc(Nc3ncc4ccc(-c5cccc(S(=O)(=O)NC(C)(C)C)c5)n4n3)cc2C1` [Example 936, N-tert-Butyl-3-[2-(2-methyl-2,3-dihydro-1H-isoindol-5-ylamino)-pyrrolo[2,1-f][1,2,4]triazin-7-yl]-benzenesulfonamide]: the pIC50 was 6.00 to 7.00 on ALK and > 7.00 at JAK2.
As for `COc1ccc(-c2ccc3cnc(Nc4ccc5c(c4)CN(C)C5)nn23)cn1` [Example 937, [7-(6-Methoxy-pyridin-3-yl)-pyrrolo[2,1-f][1,2,4]triazin-2-yl]-(2-methyl-2,3-dihydro-1H-isoindol-5-yl)-amine], the pIC50 was 5.00 to 6.00 on ALK and > 7.00 on JAK2.
Regarding `Cc1cc(Nc2ncc3ccc(-c4cccc(S(=O)(=O)NC(C)(C)C)c4)n3n2)ccc1C1CCN(CC(N)=O)CC1` [Example 938, 2-(4-{4-[7-(3-tert-Butylsulfamoyl-phenyl)-pyrrolo[2,1-f][1,2,4]triazin-2-ylamino]-2-methyl-phenyl}-piperidin-1-yl)-acetamide], the pIC50 at ALK and at JAK2 was > 7.00 each time.
For the compound `COc1ccc(-c2ccc3cnc(Nc4ccc(C5CCN(CC(N)=O)CC5)c(NC(C)=O)c4)nn23)cn1` [Example 939, 2-(4-{2-Acetylamino-4-[7-(6-methoxy-pyridin-3-yl)-pyrrolo[2,1-f][1,2,4]triazin-2-ylamino]-phenyl}-piperidin-1-yl)-acetamide], the pIC50 at ALK is 6.00 to 7.00; on JAK2 it was > 7.00.
Turning to `Cc1cc(Nc2ncc3ccc(-c4cccc(S(=O)(=O)NC(C)(C)C)c4)n3n2)ccc1C1CCN(C)CC1` [Example 940, N-tert-Butyl-3-{2-[3-methyl-4-(1-methyl-piperidin-4-yl)-phenylamino]-pyrrolo[2,1-f][1,2,4]triazin-7-yl}-benzenesulfonamide], the pIC50 on ALK and at JAK2 was > 7.00 throughout.
With `COc1ccc(-c2ccc3cnc(Nc4ccc(C5CCN(C)CC5)c(C)c4)nn23)cn1` [Example 941, [7-(6-Methoxy-pyridin-3-yl)-pyrrolo[2,1-f][1,2,4]triazin-2-yl]-[3-methyl-4-(1-methyl-piperidin-4-yl)-phenyl]-amine], the pIC50 on ALK and at JAK2 was > 7.00 in each case.
`COc1ccccc1-c1ccc2cnc(Nc3ccc(C4CCN(C)CC4)c(C)c3)nn12` [Example 942, [7-(2-Methoxy-phenyl)-pyrrolo[2,1-f][1,2,4]triazin-2-yl]-[3-methyl-4-(1-methyl-piperidin-4-yl)-phenyl]-amine]: the pIC50 at ALK and on JAK2 was > 7.00 throughout.
For the compound `CN1C2CCC1CC(c1ccc(Nc3ncc4ccc(-c5cccc(S(=O)(=O)NC(C)(C)C)c5)n4n3)cc1)C2` (stereo not shown) [Example 943, N-tert-Butyl-3-{2-[4-(8-methyl-8-aza-bicyclo[3.2.1]oct-3-yl)-phenylamino]-pyrrolo[2,1-f][1,2,4]triazin-7-yl}-benzenesulfonamide], the figures for the pIC50 at ALK and on JAK2 were 6.00 to 7.00 and > 7.00, respectively.
In the same order, the values of `COc1ccc(-c2ccc3cnc(Nc4ccc(C5CC6CCC(C5)N6C)cc4)nn23)cn1` (stereo not shown) [Example 944, [7-(6-Methoxy-pyridin-3-yl)-pyrrolo[2,1-f][1,2,4]triazin-2-yl]-[4-(8-methyl-8-aza-bicyclo[3.2.1]oct-3-yl)-phenyl]-amine] are 6.00 to 7.00 and > 7.00.
For `COc1ccccc1-c1ccc2cnc(Nc3ccc(C4CC5CCC(C4)N5C)cc3)nn12` (stereo not shown) [Example 945, [7-(2-Methoxy-phenyl)-pyrrolo[2,1-f][1,2,4]triazin-2-yl]-[4-(8-methyl-8-azabicyclo[3.2.1]oct-3-yl)-phenyl]-amine], in that order: > 7.00 and > 7.00.
